Laboratory results published in paper PMC12022153, “Sustainable approach for synthesis of new coumarin-linked Schiff bases in DABCO-based ionic liquid and their identification as aldose reductase inhibitors” (Scientific Reports, 2025).
Read-outs that look alike come from different tables or passages of the source.

Columns and labels:
[1] = biological target: T1, aldehyde reductase (ALR1) (Bos taurus, UniProt Q3ZCJ2); experiment: Enzyme inhibition assay for ALR1 (aldehyde reductase), NADPH absorbance at 340 nm; assay type: biochemical, bovine; conditions: for IC50: substrate sodium-D-glucuronate, NADPH, standard valproic acid, value ± SEM; for inhibition at 100 µM: less than 50% so no IC50
T1 construct: ALR2 was extracted from the eyes while ALR1 was obtained from the kidneys; from tissue; host or cells: bovine kidneys
Method: (§1) The ALR2 activity was estimated through measuring decrease in absorbance of NADPH in the assay at 340 nm on a spectrophotometer (FLUOstar Omega BMG LABTECH, Germany). The enzyme inhibition assay was carried out via following methods of ALR2 inhibition of our recent study. During the assay, total assay volume was kept 100 consisting of 20 µL of 100 mM sodium phosphate buffer at pH 6.2, 30 µL of the enzyme ([…]; protein concentration 12 µg mL^−1), 10 µL of test compound, and 20 µL of 1 mM substrate DL-glyceraldehyde. First, the reaction mixture was incubated without co-factor (NADPH) then reaction was initiated by addition of 20 µL of NADPH solution of 0.1 mM and monitored for five minutes. The change of absorbance was noted as pre-read and after-read, the percent inhibition was calculated for the tested compounds and standard inhibitor. For ALR1 (aldehyde reductase), sodium-D-glucuronate was employed as a substrate and valproic acid as a standard inhibitor. […] Otherwise, identical protocols were adopted for the ALR1 and ALR2 assays. First, tests compounds were solubilized in dimethyl sulfoxide (DMSO) (100%) and dilutions were prepared with deionized water to keep the concentration of DMSO at 0.1% during the assay. Initially, test compounds were tested at 100 µM. […] The logarithms of the inhibitor concentration were plotted versus the remaining activity of the enzyme, and IC50 values were calculated using non-linear regression analysis in GraphPad Prism Version 8.
(§2) Based on these reports, a library of coumarin-linked Schiff base analogues were designed. […] Compounds were also checked for selectivity via testing their inhibitory potency against ALR1 enzyme. Both aldose reductase enzymes (ALR2 and ALR1) were isolated from bovine; ALR2 was extracted from the eyes while ALR1 was obtained from the kidneys.

aldose reductase (ALR2) [2] = biological target: T2, aldose reductase (ALR2) (Bos taurus, UniProt P16116); experiment: Enzyme inhibition assay for ALR2 (aldose reductase), NADPH absorbance at 340 nm; assay type: biochemical, bovine; conditions: for IC50: read-out: IC50 ± SEM ALR2 Inhibition; for selectivity of inhibition, ALR2 versus ALR1: comparison of inhibitory activity against both enzymes; for inhibition at 100 µM: less than 50% so no IC50
T2 construct: ALR2 was extracted from the eyes while ALR1 was obtained from the kidneys; from tissue; host or cells: bovine eyes
Method: as §1, §2

aldose reductase (ALR2) [3] = conditions: cited from earlier work
[4] = test compounds tested at 100 µM, read-out: % Inhibition ALR1
[5] = test compounds tested at 100 µM, read-out: % Inhibition ALR2

T1 sequence (Q3ZCJ2 whole entry): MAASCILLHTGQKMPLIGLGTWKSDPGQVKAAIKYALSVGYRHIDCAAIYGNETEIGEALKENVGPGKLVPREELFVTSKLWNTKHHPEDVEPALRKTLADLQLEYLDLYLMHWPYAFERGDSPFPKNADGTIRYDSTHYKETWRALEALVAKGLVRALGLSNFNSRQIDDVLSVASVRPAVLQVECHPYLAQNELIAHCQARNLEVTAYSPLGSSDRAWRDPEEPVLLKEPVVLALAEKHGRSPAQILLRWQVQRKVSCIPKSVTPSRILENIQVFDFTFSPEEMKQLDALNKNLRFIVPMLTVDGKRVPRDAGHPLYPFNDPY

Compound	IC50 [1]	IC50 (aldose reductase (ALR2) [2])	selectivity of inhibition, ALR2 versus ALR1 (aldose reductase (ALR2) [2])	inhibition at 100 µM [1, 4]	further results
CCCC(CCC)C(=O)O [Valproic acid, reference compound]	57.4 ± 0.89 µM	–	–	–	–
O=c1oc2ccccc2cc1COc1ccccc1C=NNc1ccccc1Cl [Compound 7, 3-((2′-((2-(2′′-Chlorophenyl)hydrazineylidene)methyl)phenoxy)methyl)-2H-chromen-2-one]	14.49 ± 0.052 µM	3.61 ± 0.016 µM	–	–	–
Cc1ccc(NN=Cc2ccccc2OCc2cc3ccccc3oc2=O)cc1 [Compound 13, 3-((2′-((2-(p-Tolyl)hydrazineylidene)methyl)phenoxy)methyl)-2H-chromen-2-one]	–	4.64 ± 0.045 µM	selective inhibition against ALR2 enzyme	34.2%	–
O=c1oc2ccccc2cc1COc1ccccc1C=NNc1ccc(Cl)cc1 [Compound 9, 3-((2′-((2-(4′′-Chlorophenyl)hydrazineylidene)methyl)phenoxy)methyl)-2H-chromen-2-one]	4.07 ± 0.078 µM	2.84 ± 0.032 µM	–	–	–
O=c1oc2ccccc2cc1COc1ccccc1C=NNc1cccc(Cl)c1 [Compound 8, 3-((2′-((2-(3′′-Chlorophenyl)hydrazineylidene)methyl)phenoxy)methyl)-2H-chromen-2-one]	5.96 ± 0.035 µM	2.94 ± 0.083 µM	–	–	–
COc1ccc(NN=Cc2ccccc2OCc2cc3ccccc3oc2=O)cc1 [Compound 15, 3-((2′-((2-(4′′-Methoxyphenyl)hydrazineylidene)methyl)phenoxy)methyl)-2H-chromen-2-one]	4.21 ± 0.023 µM	10.19 ± 0.034 µM	non-selective inhibitions	–	–
O=c1oc2ccccc2cc1COc1ccccc1C=NNc1ccccc1 [Compound 5, 3-((2′-((2-Phenylhydrazineylidene)methyl)phenoxy)methyl)-2H-chromen-2-one]	–	11.2 ± 0.029 µM	selective inhibition against ALR2 enzyme	45.1%	–
Cc1cccc(NN=Cc2ccccc2OCc2cc3ccccc3oc2=O)c1C [Compound 19, 3-((2′-((2-(2′′,3′′-Dimethylphenyl)hydrazineylidene)methyl)phenoxy)methyl)-2H-chromen-2-one]	–	1.61 ± 0.049 µM	selective inhibition against ALR2 enzyme	37%	–
N#Cc1ccc(NN=Cc2ccccc2OCc2cc3ccccc3oc2=O)cc1 [Compound 16, 4′′-(2-(2′-((2-Oxo-2H-chromen-3-yl)methoxy)benzylidene)hydrazineyl)benzonitrile]	–	–	–	42.9%	inhibition at 100 µM (aldose reductase (ALR2) [2]; [5]): 39.2%
O=c1oc2ccccc2cc1COc1ccccc1C=NNc1ccc(F)cc1 [Compound 6, 3-((2′-((2-(4′′-Fluorophenyl)hydrazineylidene)methyl)phenoxy)methyl)-2H-chromen-2-one]	–	2.2 ± 0.024 µM	selective inhibition against ALR2 enzyme	45.2%	–
C/C(=N\NC(=S)Nc1ccccc1F)c1cc2ccccc2oc1=O [XV]	–	–	–	–	selectivity relative to ALR1 enzyme (aldose reductase (ALR2) [3]): high selectivity; IC50 (aldose reductase (ALR2) [3]; coumarin-tethered thiosemicarbazones, read-out: IC50 ALR2 / aldose reductase inhibition): 2.07 µM
O=c1oc2ccccc2cc1COc1ccccc1C=NNc1cccc([N+](=O)[O-])c1 [Compound 18, 3-((2′-((2-(3′′-Nitrophenyl)hydrazineylidene)methyl)phenoxy)methyl)-2H-chromen-2-one]	–	–	–	35.7%	inhibition at 100 µM (aldose reductase (ALR2) [2]; [5]): 42.9%
O=c1oc2ccccc2cc1COc1ccccc1C=NNc1ccc([N+](=O)[O-])cc1[N+](=O)[O-] [Compound 22, 3-((2′-((2-(2′′,4′′-Dinitrophenyl)hydrazineylidene)methyl)phenoxy)methyl)-2H-chromen-2-one]	–	–	–	–	inhibition at 100 µM (aldose reductase (ALR2) [2]; read-out: % Inhibition ALR2, test compounds tested at 100 µM): < 50%; inhibition at 100 µM ([1]; read-out: % Inhibition ALR1, test compounds tested at 100 µM): < 50%
O=c1oc2ccccc2cc1COc1ccccc1C=NNc1ccccc1Br [Compound 10, 3-((2′-((2-(2′′-Bromophenyl)hydrazineylidene)methyl)phenoxy)methyl)-2H-chromen-2-one]	–	–	–	< 50%	inhibition at 100 µM (aldose reductase (ALR2) [2]; [5]): < 50%
O=c1oc2ccccc2cc1COc1ccccc1C=NNc1ccc(Br)cc1 [Compound 11, 3-((2′-((2-(4′′-Bromophenyl)hydrazineylidene)methyl)phenoxy)methyl)-2H-chromen-2-one]	–	–	–	< 50%	inhibition at 100 µM (aldose reductase (ALR2) [2]; [5]): < 50%
O=c1oc2ccccc2cc1COc1ccccc1C=NNc1ccc(Cl)c(Cl)c1 [Compound 21, 3-((2′-((2-(3′′,4′′-Dichlorophenyl)hydrazineylidene)methyl)phenoxy)methyl)-2H-chromen-2-one]	11.23 ± 0.065 µM	4.07 ± 0.083 µM	non-selective inhibitions	–	–
Cc1ccccc1NN=Cc1ccccc1OCc1cc2ccccc2oc1=O [Compound 12, 3-((2′-((2-(o-Tolyl)hydrazineylidene)methyl)phenoxy)methyl)-2H-chromen-2-one]	–	3.66 ± 0.068 µM	selective inhibition against ALR2 enzyme	37.9%	–
CCc1ccccc1NN=Cc1ccccc1OCc1cc2ccccc2oc1=O [Compound 14, 3-((2′-((2-(2′′-Ethylphenyl)hydrazineylidene)methyl)phenoxy)methyl)-2H-chromen-2-one]	12.9 ± 0.013 µM	6.52 ± 0.077 µM	non-selective inhibitions	–	–
O=c1oc2ccccc2cc1COc1ccccc1C=NNc1ccccc1[N+](=O)[O-] [Compound 17, 3-((2′-((2-(2′′-Nitrophenyl)hydrazineylidene)methyl)phenoxy)methyl)-2H-chromen-2-one]	–	–	–	33.2%	inhibition at 100 µM (aldose reductase (ALR2) [2]; [5]): 45.6%
Cc1ccc(NN=Cc2ccccc2OCc2cc3ccccc3oc2=O)c(C)c1 [Compound 20, 3-((2′-((2-(2′′,4′′-Dimethylphenyl)hydrazineylidene)methyl)phenoxy)methyl)-2H-chromen-2-one]	3.29 ± 0.064 µM	7.63 ± 0.061 µM	non-selective inhibitions	–	–
